From patent US8309577B2, “Quinuclidine compounds as α-7 nicotinic acetylcholine receptor ligands” (Bristol-Myers Squibb Company, priority 2008, dated 2012)
Where two headings read alike, the source gives them in different places.

Target: T1, α-7 nicotinic acetylcholine receptor channel expressed in HEK 293 cells (Rattus norvegicus, UniProt Q05941)
T1 construct: expressed in transfected cells
Assay: Ca2+-sensitive fluorescence-based FLIPR assay, α7 nicotinic ACh receptor channel function (agonist)
Assay type: cell-based
Method: I) α7 Nicotinic Acetycholine Receptor Binding. Membranes were prepared for binding using HEK293 cells stably expressing the rat α7 nicotinic acetycholine receptor (rat α7 nAChR). Cells were homogenized at 4° C. in hypotonic lysis buffer consisting of 10 mM Tris (pH 7.4), 5 mM EDTA and protease inhibitors and centrifuged at 32000×g for 20 minutes. The pellet was washed once in membrane wash buffer consisting of 50 mM Tris (pH 7.4), 1 mM EDTA and protease inhibitors and centrifuged at 32000×g for 20 minutes. This pellet was then resuspended in assay buffer consisting 50 mM KH2PO4 (pH 7.4 at 25° C.), 1 mM EDTA, 0.005% Triton-X 100 and 0.1% (v/v) Sigma Protease Inhibitor Cocktail. Aliquots were then frozen in dry ice/ethanol and kept at −80° C. until the day of the assay. II) A Ca^2+-Sensitive, Fluorescence-Based Assay α-7 for Nicotinic Acetylcholine Receptor Channel Function In Mammalian Cells (“FLIPR”). Summary: Lead compounds are evaluated for agonist activity at […], α3β4, […], and α1β1δ1ε sub-types of nicotinic ACh receptor ion channels expressed in mammalian HEK 293 cells. Agonist potency and efficacy values are determined from kinetic fluorescence Ca^2+ influx measurements made using a 384 well FLIPR (Fluorescence Image Plate Reader). […] In this assay, channel expressing HEK cell lines seeded in 384 well assay plates are loaded with a membrane permeant fluorescent Ca^2+ indicator dye, whose 510 nm green emission signal increases in response to elevation of intracellular Ca^2+ concentration. The basal fluorescence from the cells is monitored in real time, followed by the acute addition of test compounds.
Materials and Methods: Reagents: The acetomethoxy (AM) ester of the Ca^2+ indicator dye Fluo-4 was obtained from InVitrogen, (Carlsbad, Calif.). Acetylcholine and all buffer constituents were purchased from Sigma Chemical Company, St. Louis, Mo. G418 and Minimal Essential Medium were purchased from InVitrogen Life Technologies, Carlsbad, Calif. Fetal bovine serum was purchased from (InVitrogen, Carlsbad, Calif.).
Cell Culture: HEK-293 cells were grown in Minimal Essential Medium containing 10% (v/v) fetal bovine serum at 37° C. in a 5% CO2 incubator. HEK-293 cells stably expressing the ion channels were grown in the same medium with the addition of 500 μg/ml G418.
Ca^2+ flux assays of Ca^2+ channels expressed in HEK-293 cells: HEK-293 cells expressing the ion channels of interest were plated in 384 well, black-walled, clear-bottomed, poly-D-lysine coated plates at a density of ˜20,000 cells/well in 20 μl of Minimal Essential Medium containing 10% (v/v) fetal bovine serum and incubated for 2 days at 29° C. in a 5% CO2 incubator. Prior to assay, cells were loaded with the Fluo-4 AM ester. […] Dye loading was allowed to proceed for 90 minutes at room temperature at which time the dye loading solution was removed and replaced with 40 μl/well of Hanks buffer. Cells loaded with dye were loaded onto a FLIPR384 (Molecular Devices, Sunnyvale, Calif.). Fluo-4 dye was excited using the 488 nm line of an argon laser. Emission was filtered using a 540+/−30 nm bandpass filter. For evaluation of the effects of test compounds using the Ca^2+ flux assay, compounds to be tested were provided in assay ready plates. For nicotinic receptor ion channel expressing cells, the assay was initiated by the addition of 20 μl/well of Hanks buffer containing test compounds. For all assays, data were collected at 1 Hz for 10 seconds (baseline), at which time the compound containing stimulus buffers are added, and further measurements collected at 0.33 Hz for 3 min.
Data Analysis: The statistical robustness of the nicotinic receptor Ca^2+ flux assays is determined from blanks and totals wells. […] The raw fluorescence units data files generated on the FLIPR plate reader are automatically exported and processed by in-house data analysis tools.

[1] = FLIPR α7 activity rating (EC50, nM), Table 1, HEK 293 cells, agonist Ca2+ flux
[2] = FLIPR α7 (EC50, nM), Table 1, HEK 293 cells, agonist Ca2+ flux

T1 sequence (Q05941 23-502): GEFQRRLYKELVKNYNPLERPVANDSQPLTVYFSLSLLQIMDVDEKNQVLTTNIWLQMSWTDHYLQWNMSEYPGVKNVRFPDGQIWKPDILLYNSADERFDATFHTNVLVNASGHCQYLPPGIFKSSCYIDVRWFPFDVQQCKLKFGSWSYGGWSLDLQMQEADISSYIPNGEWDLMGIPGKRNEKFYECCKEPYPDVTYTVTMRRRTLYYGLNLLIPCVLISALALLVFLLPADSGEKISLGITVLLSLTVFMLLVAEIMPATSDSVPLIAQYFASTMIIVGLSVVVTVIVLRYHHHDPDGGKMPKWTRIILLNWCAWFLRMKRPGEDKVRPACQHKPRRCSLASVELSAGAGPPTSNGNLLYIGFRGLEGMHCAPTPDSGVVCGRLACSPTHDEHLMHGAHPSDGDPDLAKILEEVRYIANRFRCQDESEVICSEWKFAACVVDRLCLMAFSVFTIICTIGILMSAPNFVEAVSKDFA

Compound | EC50 [1] [nM] | EC50 [nM] | EC50 [2] [nM]
COc1ccc(-c2cc(NC3=NC[C@@]4(CN5CCC4CC5)O3)ncn2)cn1 [Example 43, (R)—N-(6-(6-Methoxypyridin-3-yl)pyrimidin-4-yl)-4H-1′-azaspiro[oxazole-5,3′-bicyclo[2.2.2]octan]-2-amine] | < 100 |  | 
c1ccc2cc(-c3cc(NC4=NC[C@@]5(CN6CCC5CC6)O4)ncn3)ccc2c1 [Example 44, (R)—N-(6-(Naphthalen-2-yl)pyrimidin-4-yl)-4H-1′-azaspiro[oxazole-5,3′-bicyclo[2.2.2]octan]-2-amine] | 100 to 1000 |  | 
c1ccc(-c2csc(NC3=NCC4(CN5CCC4CC5)O3)n2)cc1 (stereo not drawn) [Example 45] | 100 to 1000 |  | 
c1cc2nc(NC3=NCC4(CN5CCC4CC5)O3)sc2cc1N1CCOCC1 (stereo not drawn) [Example 46] | 1000 to 100000 | 2000 | 
Fc1ccc2sc(NC3=NCC4(CN5CCC4CC5)O3)nc2c1 (stereo not drawn) [Example 47] | < 100 |  | 
FC(F)(F)c1ccc2nc(NC3=NCC4(CN5CCC4CC5)O3)sc2c1 (stereo not drawn) [Example 48] | 100 to 1000 |  | 790
FC(F)(F)Oc1ccc2nc(NC3=NCC4(CN5CCC4CC5)O3)sc2c1 (stereo not drawn) [Example 49] | 1000 to 100000 | 3330 | 
Fc1cccc2sc(NC3=NCC4(CN5CCC4CC5)O3)nc12 (stereo not drawn) [Example 50] | < 100 |  | 
Fc1cc2nc(NC3=NCC4(CN5CCC4CC5)O3)sc2cc1F (stereo not drawn) [Example 52] | 100 to 1000 |  | 325
COc1ccc2sc(NC3=NCC4(CN5CCC4CC5)O3)nc2c1 (stereo not drawn) [Example 53] | 1000 to 100000 |  | 
COc1cccc2sc(NC3=NCC4(CN5CCC4CC5)O3)nc12 (stereo not drawn) [Example 54] | 1000 to 100000 |  | 
COc1cc2nc(NC3=NCC4(CN5CCC4CC5)O3)sc2cc1OC (stereo not drawn) [Example 55] | 1000 to 100000 |  | 
c1ccc(-c2nnc(NC3=NCC4(CN5CCC4CC5)O3)s2)cc1 (stereo not drawn) [Example 56] | 1000 to 100000 |  | 
CN(C)C(=O)c1ccc2nc(NC3=NCC4(CN5CCC4CC5)O3)sc2c1 (stereo not drawn) [Example 57] | 1000 to 100000 | 3900 | 
O=C(c1ccc2nc(NC3=NCC4(CN5CCC4CC5)O3)sc2c1)N1CCCCC1 (stereo not drawn) [Example 58] | 1000 to 100000 |  | 
Fc1ccc(-c2nnc(NC3=NCC4(CN5CCC4CC5)O3)s2)cc1 (stereo not drawn) [Example 59] | 1000 to 100000 | 4240 | 
c1coc(-c2nnc(NC3=NCC4(CN5CCC4CC5)O3)s2)c1 (stereo not drawn) [Example 60] | 1000 to 100000 | 2550 | 
Brc1ccc2nc(NC3=NCC4(CN5CCC4CC5)O3)sc2c1 (stereo not drawn) [Example 61] | 100 to 1000 |  | 
Cc1nc2cc(NC3=NCC4(CN5CCC4CC5)O3)ccc2s1 (stereo not drawn) [Example 63] | 1000 to 100000 | 2600 | 
Clc1ccc2nc(NC3=NCC4(CN5CCC4CC5)O3)nn2c1 (stereo not drawn) [Example 66] | 100 to 1000 |  | 360
Cc1noc(C)c1NC1=NCC2(CN3CCC2CC3)O1 (stereo not drawn) [Example 67] | 1000 to 100000 |  | 
Cc1cnn(C)c1NC1=NCC2(CN3CCC2CC3)O1 (stereo not drawn) [Example 68] | 1000 to 100000 |  | 

Compound | EC50 [1] [nM] | EC50 [nM] | EC50 [2] [nM]
N#Cc1ccc2nc(NC3=NCC4(CN5CCC4CC5)O3)sc2c1 (stereo not drawn) [Example 70] | 100 to 1000 |  | 
c1nc2cc(NC3=NCC4(CN5CCC4CC5)O3)ccc2s1 (stereo not drawn) [Example 71] | 1000 to 100000 |  | 
c1nc2ccc(NC3=NCC4(CN5CCC4CC5)O3)cc2s1 (stereo not drawn) [Example 72] | 1000 to 100000 |  | 
c1ccc2ncc(NC3=NCC4(CN5CCC4CC5)O3)cc2c1 (stereo not drawn) [Example 73] | 1000 to 100000 | 7550 | 
Cc1ccc2nc(NC3=NCC4(CN5CCC4CC5)O3)nn2c1 (stereo not drawn) [Example 74] | < 100 |  | 
c1cnc2cc(NC3=NCC4(CN5CCC4CC5)O3)ccc2n1 (stereo not drawn) [Example 75] | 1000 to 100000 |  | 
COc1ccc2nc(NC3=NCC4(CN5CCC4CC5)O3)[nH]c2c1 (stereo not drawn) [Example 76] | 100 to 1000 |  | 
Fc1ccc2nc(NC3=NCC4(CN5CCC4CC5)O3)[nH]c2c1 (stereo not drawn) [Example 77] | 100 to 1000 |  | 355
c1cc2cn[nH]c2cc1NC1=NCC2(CN3CCC2CC3)O1 (stereo not drawn) [Example 78] | 1000 to 100000 |  | 
FC(F)(F)c1ccc2nc(NC3=NCC4(CN5CCC4CC5)O3)nn2c1 (stereo not drawn) [Example 83] | 100 to 1000 |  | 240
c1cnc2ccc(NC3=NCC4(CN5CCC4CC5)O3)cc2c1 (stereo not drawn) [Example 85] | 1000 to 100000 |  | 
O=C1Cc2cc(NC3=NCC4(CN5CCC4CC5)O3)ccc2N1 (stereo not drawn) [Example 86] | 1000 to 100000 |  | 
c1ccn2nc(NC3=NCC4(CN5CCC4CC5)O3)nc2c1 (stereo not drawn) [Example 87] | < 100 |  | 
c1ccc(-c2csc(NC3=NCC4(CN5CCC4CC5)O3)n2)nc1 (stereo not drawn) [Example 88] | 100 to 1000 |  | 
Cc1cc(C)c2nc(NC3=NCC4(CN5CCC4CC5)O3)sc2c1 (stereo not drawn) [Example 89] | < 100 |  | 
CC(=O)Nc1ccc2nc(NC3=NCC4(CN5CCC4CC5)O3)sc2c1 (stereo not drawn) [Example 90] | 100 to 1000 |  | 130
CCc1ccc2nc(NC3=NCC4(CN5CCC4CC5)O3)sc2c1 (stereo not drawn) [Example 91] | 100 to 1000 |  | 
Cc1cnc(NC2=NCC3(CN4CCC3CC4)O2)s1 (stereo not drawn) [Example 92] | < 100 |  | 
Cc1ccn2nc(NC3=NCC4(CN5CCC4CC5)O3)nc2c1 (stereo not drawn) [Example 94] | < 100 |  | 
Cn1c(-c2ccccc2)cnc1NC1=NCC2(CN3CCC2CC3)O1 (stereo not drawn) [Example 96] | 1000 to 100000 |  | 
Cc1cccn2nc(NC3=NCC4(CN5CCC4CC5)O3)nc12 (stereo not drawn) [Example 97] | 100 to 1000 |  | 
Cc1nc(NC2=NCC3(CN4CCC3CC4)O2)sc1C(=O)N(C)C (stereo not drawn) [Example 98] | 1000 to 100000 |  | 

Compound | EC50 [1] [nM] | EC50 [nM] | EC50 [2] [nM]
Cc1ccc(C)c2sc(NC3=NCC4(CN5CCC4CC5)O3)nc12 (stereo not drawn) [Example 102] | < 100 |  | 
Cc1cc(Cl)c2nc(NC3=NCC4(CN5CCC4CC5)O3)sc2c1 (stereo not drawn) [Example 103] | 100 to 1000 |  | 280
FC(F)Oc1ccc2nc(NC3=NCC4(CN5CCC4CC5)O3)sc2c1 (stereo not drawn) [Example 104] | 100 to 1000 |  | 
c1ccc(Cc2cnc(NC3=NCC4(CN5CCC4CC5)O3)s2)cc1 (stereo not drawn) [Example 105] | 100 to 1000 |  | 
Brc1cnc(NC2=NCC3(CN4CCC3CC4)O2)cn1 (stereo not drawn) [Example 107] | 100 to 1000 |  | 
Cc1csc(NC2=NCC3(CN4CCC3CC4)O2)n1 (stereo not drawn) [Example 109] | 100 to 1000 |  | 
CC(C)(C)c1csc(NC2=NCC3(CN4CCC3CC4)O2)n1 (stereo not drawn) [Example 110] | 100 to 1000 |  | 450
COc1ccc(C)c2nc(NC3=NCC4(CN5CCC4CC5)O3)sc12 (stereo not drawn) [Example 112] | < 100 |  | 
c1ccc2c(NC3=NCC4(CN5CCC4CC5)O3)n[nH]c2c1 (stereo not drawn) [Example 113] | < 100 |  | 
COc1ccn2nc(NC3=NC[C@@]4(CN5CCC4CC5)O3)nc2c1 [Example 125] | < 100 |  | 17
Clc1cncc(NC2=NC[C@@]3(CN4CCC3CC4)O2)n1 [Example 127] | 1000 to 100000 |  | 
COc1ccc(-c2nc(NC3=NC[C@@]4(CN5CCC4CC5)O3)sc2C)cc1 [Example 129] | 100 to 1000 |  | 
COc1nc(Br)cnc1NC1=NC[C@@]2(CN3CCC2CC3)O1 [Example 130] | 100 to 1000 |  | 
Clc1cccc2[nH]nc(NC3=NC[C@@]4(CN5CCC4CC5)O3)c12 [Example 132] | 100 to 1000 |  | 
Brc1ccc2c(NC3=NC[C@@]4(CN5CCC4CC5)O3)n[nH]c2c1 [Example 133] | < 100 |  | 
Clc1ccc2c(NC3=NC[C@@]4(CN5CCC4CC5)O3)n[nH]c2c1 [Example 134] | < 100 |  | 
COc1ccc2c(NC3=NC[C@@]4(CN5CCC4CC5)O3)n[nH]c2c1 [Example 135] | < 100 |  | 
Brc1cnc(NC2=NC[C@@]3(CN4CCC3CC4)O2)cn1 [Example 136] | < 100 |  | 
c1cncc(-c2ncc(NC3=NC[C@@]4(CN5CCC4CC5)O3)cn2)c1 [Example 138] | 1000 to 100000 |  | 
c1ccc2nc(NC3=NC[C@@]4(CN5CCC4CC5)O3)ccc2c1 [Example 139] | < 100 |  | 16
